Test results from patent publication US20230414557A1, “NEW THERAPY CONCEPT FOR THE TREATMENT OF CORONA INFECTIONS, ESPECIALLY COVID-19 INFECTIONS” (priority 2020, published 2023).

What was measured:
IL-1beta = experiment: LPS-stimulated production of IL-1beta in human monocytes in vitro (ELISA); assay type: cell-based; conditions: for IL-1beta / effect vs. control inhibition (%): LPS-stimulated human monocytes
Description: In cell culture supernatants, the production of IL-1beta is determined by ELISA (Cayman Chemical, Ann Arbor, Michigan, USA).

[1] = test system: superoxide production (O2^−-production); experiment: PMA-stimulated superoxide production (O2−-production) of human monocytes in vitro, INT formazan; assay type: cell-based; conditions: RPMI-1640, 20 hours
NO-production = NO-production in stimulated human monocytes in vitro; assay type: cell-based; conditions: 20 hours
corona viruses = assay type: cell-based, human
COVID-19 [2] = experiment: thrombocytes from patients suffering from COVID-19 incubated with 1,8-cineole; assay type: cell-based, human; conditions: thrombocytes from COVID-19 patients incubated with 1,8-cineole
Excerpt: This antiviral effect of 1,8-cineole in COVID-19 infections is completely unexpected.

IL-8 (interleukin-8) = experiment: production of IL-8 in human monocytes of volunteers; assay type: cell-based; conditions: 1,8-cineole alone
[3] = test system: TNF-alpha (tumor necrosis factor-alpha); experiment: production of TNF-alpha in human monocytes of volunteers; assay type: cell-based; conditions: 1,8-cineole alone
[4] = test system: superoxide dismutases (SOD); experiment: activity of superoxide dismutases; assay type: cell-based
hydrogen peroxide (H2O2) = experiment: production of hydrogen peroxide; assay type: cell-based; conditions: even at lower concentrations and in the therapeutic range
[5] = cited from earlier work
COVID-19 [6] = conditions: human, in vivo; cited from earlier work
[7] = 1,8-cineole 0.0015 μg/ml (10^−8 mol/l)
[8] = 1,8-cineole 1.2 μg/ml (8 × 10^−6 mol/l)
[9] = 1,8-cineole 1.5 μg/ml (10^−5 mol/l)
[10] = 1,8-cineole 3.0 μg/ml (2 × 10^−5 mol/l)

## CC12CCC(CC1)C(C)(C)O2 [1,8-cineole, 1,3,3-trimethyl-2-oxabicyclo[2.2.2]octane]
IL-1beta; 10^−6 mol/l, compared with the control
  monocyte IL-1beta production, result in words: significantly inhibited
IL-1beta; 10^−6 mol/l, 20 hours
  IL-1beta: 3548 ± 600 pg/5 × 10^−4 cells
  effect vs. control inhibition (%): 32.4 ± 17%
[1]; [7]
  INT-formazan: 5364 ± 229 nmol/10^5
  comparison to control (%): +27.6 ± 4%
[1]; [8]
  INT-formazan: 4099 ± 234 nmol/10^5
  comparison to control (%): −2.5 ± 6%
[1]; [9]
  INT-formazan: 2438 ± 389 nmol/10^5
  comparison to control (%): −42 ± 16%
[1]; [10]
  INT-formazan: 634 ± 139 nmol/10^5
  comparison to control (%): −84.9 ± 22%
NO-production; low subtherapeutic concentrations of 1,8-cineole
  NO-production: inhibit NO-production
NO-production; therapeutic dose range of 1,8-cineole
  NO-production: strong or significant stimulatory effects on NO-production
Corona viruses
  outbreak of infection, especially hypercytokinemia: prevented or reduced
Corona viruses; healthy thrombocytes incubated with COVID-19, subsequently incubation with 1,8-cineole
  virus replication and production of hyperinflammatory cytokines in thrombocytes: inhibited
COVID-19 [2]
  course of infection, especially hypercytokinemia: prevented or attenuated
IL-8 (interleukin-8)
  production of IL-8: significant inhibitory effect
[3]
  production of TNF-alpha: significant inhibitory effect
[4]
  superoxide dismutase activity: partially inhibited
Hydrogen peroxide (H2O2)
  production of H2O2: inhibits
[5]
  solubility in water: insoluble in water

## CCN(CC)CCCC(C)Nc1ccnc2cc(Cl)ccc12 (stereo not shown) [Chloroquine]
COVID-19 [6]
  efficacy in COVID-19: no evidence of efficacy

## C[C@@H]1C[C@H]2[C@@H]3CCC4=CC(=O)C=C[C@]4(C)[C@@]3(F)[C@@H](O)C[C@]2(C)[C@@]1(O)C(=O)CO [dexamethasone, 9-fluoro-16alpha-methylprednisolone]
IL-1beta; dex. 10^−9 mol/l
  IL-1beta: 2655 ± 546 pg/5 × 10^−4 cells
  effect vs. control inhibition (%): 49.5 ± 20%
IL-1beta; dex. 10^−12 mol/l
  IL-1beta: 5245 ± 1027 pg/5 × 10^−4 cells
  effect vs. control inhibition (%): 0.1 ± 19%

## CCN(CCO)CCCC(C)Nc1ccnc2cc(Cl)ccc12 (stereo not shown) [hydroxychloroquine]
COVID-19 [6]
  efficacy in COVID-19: no evidence of efficacy

## Tocilizumab: monoclonal antibody approved for rheumatoid arthritis and cytokine release syndrome
COVID-19 [6]
  efficacy in COVID-19: ineffective
